Key:
[1] = test system: Brassica napus (winter rape, BRSNW); experiment: Greenhouse postemergence herbicidal effect, visual injury 20-22 d after spraying, winter rape (BRSNW); type: in vivo; details: Anilofos or Pretilachlor 300 g/ha
From the text: (§1) Seeds of the desired test plant species were planted in a 90:10% v/v (volume/volume) mixture of PRO-MIX® BX (Premier Tech Horticulture, Quakertown, Pa., USA) and PROFILE® GREENS GRADE™ (Profile Products LLC, Buffalo Grove, Ill., USA) planting mixture, which typically has a pH of 5.2 to 6.2 and an organic matter content of at least 50 percent, in plastic pots with a surface area of 103.2 square centimeters (cm^2). In some aspects, to ensure good germination and healthy plants, a fungicide treatment and/or other chemical or physical treatment was applied. The plants were grown for 7-36 days (d) in a greenhouse with an approximate 14-hour (h) photoperiod which was maintained at about 23° C. during the day and 22° C. during the night. Nutrients and water were added on a regular basis and supplemental lighting was provided with overhead metal halide 1000-Watt lamps as necessary. The plants were employed for testing when they reached the second or third true leaf stage.
(§2) Emulsifiable concentrates of each of each pyridine carboxylate herbicide (Compound A or Compound B) were prepared at 100 grams acid equivalent per liter (g ae/L). The emulsifiable concentrates also included a safener, cloquintocet-mexyl, at 120 grams active ingredient per liter (g ai/L). An aliquot of each emulsifiable concentrate was placed in a 25 mL glass vial and diluted with an aqueous mixture of 1.25% (v/v) ACTIROB® B esterified rapeseed oil (Bayer Crop Science, Research Triangle Park, N.C., USA) or MSO® Concentrate with LECI-TECH® methylated soybean oil (Loveland Products, Loveland, Colo., USA) to obtain concentrated stock solutions at the highest application rate for each herbicide, based upon a 12 milliliter (mL) application volume at a rate of 187 liters per hectare (L/ha). The concentrated stock solutions were further diluted with an aqueous mixture of 1.25% v/v ACTIROB® B or MSO® Concentrate with LECI-TECH® to obtain stock solutions at reduced application rates for each herbicide. Spray solutions of the herbicide combinations (Compound A or Compound B plus VLCFA synthesis inhibitor herbicide) were prepared by adding weighed amounts or aliquots of the VLCFA synthesis inhibitor herbicide to the stock solutions of Compound A or Compound B to form 12-mL spray solutions in two-way combinations.
(§3) The spray solutions were applied to the plant material with an overhead Mandel track sprayer equipped with 8002E nozzles calibrated to deliver 187 L/ha over an application area of 0.503 square meters (m^2) at a spray height of 18 inches ([…] (cm)) above the average plant canopy. Control plants were sprayed in the same manner with the solvent blank. All pyridine carboxylate herbicide (component a) application rates are given as “g ae/ha” and all VLCFA synthesis inhibitor herbicide (component b) application rates are given as “g ai/ha.”
(§4) The treated plants and control plants were placed in a greenhouse as described above and watered by sub-irrigation to prevent wash-off of the test compounds. After 20-22 d, the condition of the test plants as compared with that of the control plants was determined visually and scored on a scale of 0 to 100 percent where 0 corresponds to no injury and 100 corresponds to complete kill.

[2] = test system: Polygonum convolvulus (wild buckwheat, POLCO); experiment: Greenhouse postemergence herbicidal effect, visual injury 20-22 d after spraying, wild buckwheat (POLCO); type: in vivo; details: Anilofos or Pretilachlor 300 g/ha
From the text: as §1, §2, §3, §4

[3] = test system: Sinapis arvensis (wild mustard, SINAR); experiment: Greenhouse postemergence herbicidal effect, visual injury 20-22 d after spraying, wild mustard (SINAR); type: in vivo; details: Anilofos or Pretilachlor 300 g/ha
From the text: as §1, §2, §3, §4

[4] = test system: Salsola kali (Russian thistle, SASKR); experiment: Greenhouse postemergence herbicidal effect, visual injury 20-22 d after spraying, Russian thistle (SASKR); type: in vivo; details: Anilofos or Pretilachlor 300 g/ha
From the text: as §1, §2, §3, §4

[5] = test system: Kochia scoparia (kochia, KCHSC); experiment: Greenhouse postemergence herbicidal effect, visual injury 20-22 d after spraying, kochia (KCHSC); type: in vivo; details: Anilofos or Pretilachlor 300 g/ha
From the text: as §1, §2, §3, §4

[6] = test system: Matricaria chamomilla (wild chamomile, MATCH); experiment: Greenhouse postemergence herbicidal effect, visual injury 20-22 d after spraying, wild chamomile (MATCH); type: in vivo; details: Anilofos or Pretilachlor 300 g/ha
From the text: as §1, §2, §3, §4

[7] = test system: Cirsium arvense (Canadian thistle, CIRAR); experiment: Greenhouse postemergence herbicidal effect, visual injury 20-22 d after spraying, Canadian thistle (CIRAR); type: in vivo; details: for % visual injury CIRAR Obs: Anilofos or Pretilachlor 300 g/ha
From the text: as §1, §2, §3, §4

[8] = test system: Triticum aestivum (spring wheat, TRZAS); experiment: Greenhouse postemergence crop phytotoxicity, visual injury 20-22 d after spraying, spring wheat (TRZAS); type: in vivo; details: Anilofos or Pretilachlor 300 g/ha
From the text: as §1, §2, §3, §4

[9] = test system: Hordeum vulgare (spring barley, HORVS); experiment: Greenhouse postemergence crop phytotoxicity, visual injury 20-22 d after spraying, spring barley (HORVS); type: in vivo; details: Anilofos or Pretilachlor 300 g/ha
From the text: as §1, §2, §3, §4

[10] = test system: Viola tricolor (wild pansy, VIOTR); experiment: Greenhouse postemergence herbicidal effect, visual injury 20-22 d after spraying, wild pansy (VIOTR); type: in vivo; details: for % visual injury VIOTR Obs: Anilofos or Pretilachlor 300 g/ha
From the text: as §1, §2, §3, §4

[11] = test system: Capsella bursa-pastoris (shepherd's purse, CAPBP); experiment: Greenhouse postemergence herbicidal effect, visual injury 20-22 d after spraying, shepherd's purse (CAPBP); type: in vivo; details: Anilofos or Pretilachlor 300 g/ha
From the text: as §1, §2, §3, §4

[12] = test system: Veronica persica (Persian speedwell, VERPE); experiment: Greenhouse postemergence herbicidal effect, visual injury 20-22 d after spraying, Persian speedwell (VERPE); type: in vivo; details: Anilofos or Pretilachlor 300 g/ha
From the text: as §1, §2, §3, §4

[13] = test system: Veronica hederifolia (ivy-leaved speedwell, VERHE); experiment: Greenhouse postemergence herbicidal effect, visual injury 20-22 d after spraying, ivy-leaved speedwell (VERHE); type: in vivo; details: Anilofos or Pretilachlor 300 g/ha
From the text: as §1, §2, §3, §4

[14] = test system: Matricaria inodora (scentless chamomile, MATIN); experiment: Greenhouse postemergence herbicidal effect, visual injury 20-22 d after spraying, scentless chamomile (MATIN); type: in vivo; details: Anilofos or Pretilachlor 300 g/ha
From the text: as §1, §2, §3, §4

[15] = test system: Matricaria discoidea (pineapple weed, MATMT); experiment: Greenhouse postemergence herbicidal effect, visual injury 20-22 d after spraying, pineapple weed (MATMT); type: in vivo; details: Anilofos or Pretilachlor 300 g/ha
From the text: as §1, §2, §3, §4

[16] = test system: Papaver rhoeas (common poppy, PAPRH); experiment: Greenhouse postemergence herbicidal effect, visual injury 20-22 d after spraying, common poppy (PAPRH); type: in vivo; details: Anilofos or Pretilachlor 300 g/ha
From the text: as §1, §2, §3, §4

[17] = test system: Lamium purpureum (purple deadnettle, LAMPU); experiment: Greenhouse postemergence herbicidal effect, visual injury 20-22 d after spraying, purple deadnettle (LAMPU); type: in vivo; details: Anilofos or Pretilachlor 300 g/ha
From the text: as §1, §2, §3, §4

[18] = test system: Viola arvensis (field pansy, VIOAR); experiment: Greenhouse postemergence herbicidal effect, visual injury 20-22 d after spraying, field pansy (VIOAR); type: in vivo; details: Anilofos or Pretilachlor 300 g/ha
From the text: as §1, §2, §3, §4

[19] = test system: Stellaria media (common chickweed, STEME); experiment: Greenhouse postemergence herbicidal effect, visual injury 20-22 d after spraying, common chickweed (STEME); type: in vivo; details: Anilofos or Pretilachlor 300 g/ha
From the text: as §1, §2, §3, §4

[20] = test system: Anthemis arvensis (corn chamomile, ANTAR); experiment: Greenhouse postemergence herbicidal effect, visual injury 20-22 d after spraying, corn chamomile (ANTAR); type: in vivo; details: Anilofos or Pretilachlor 300 g/ha
From the text: as §1, §2, §3, §4

[21] = test system: Cyanus segetum (cornflower, CENCY); experiment: Greenhouse postemergence herbicidal effect, visual injury 20-22 d after spraying, cornflower (CENCY); type: in vivo; details: Anilofos or Pretilachlor 300 g/ha
From the text: as §1, §2, §3, §4

[22] = test system: winter wheat (TRZAW); experiment: Greenhouse postemergence crop phytotoxicity, visual injury 20-22 d after spraying, winter wheat (TRZAW); type: in vivo, Triticum aestivum; details: Anilofos or Pretilachlor 300 g/ha
From the text: as §1, §2, §3, §4

[23] = test system: winter barley (HORVW); experiment: Greenhouse postemergence crop phytotoxicity, visual injury 20-22 d after spraying, winter barley (HORVW); type: in vivo, Hordeum vulgare; details: Anilofos or Pretilachlor 300 g/ha
From the text: as §1, §2, §3, §4

[24] = test system: Amaranthus retroflexus (pigweed, AMARE); experiment: Greenhouse postemergence herbicidal effect, visual injury 20-22 d after spraying, pigweed (AMARE); type: in vivo; details: Flufenacet 60 g/ha alone
From the text: as §1, §2, §3, §4

[25] = test system: Abutilon theophrasti (velvetleaf, ABUTH); experiment: Greenhouse postemergence herbicidal effect, visual injury 20-22 d after spraying, velvetleaf (ABUTH); type: in vivo; details: Flufenacet 60 g/ha alone
From the text: as §1
(§5) Emulsifiable concentrates of each of each pyridine carboxylate herbicide (Compound A or Compound B) were prepared at 100 grams acid equivalent per liter (g ae/L). The emulsifiable concentrates also included a safener, cloquintocet-mexyl, at 120 grams active ingredient per liter (g ai/L). […]
as §4

[26] = test system: Ipomoea hederacea (ivyleaf morningglory, IPOHE); experiment: Greenhouse postemergence herbicidal effect, visual injury 20-22 d after spraying, ivyleaf morningglory (IPOHE); type: in vivo; details: Flufenacet 60 g/ha alone
From the text: as §1, §5, §4

[27] = test system: Helianthus annuus (common sunflower, HELAN); experiment: Greenhouse postemergence herbicidal effect, visual injury 20-22 d after spraying, common sunflower (HELAN); type: in vivo; details: Flufenacet 60 g/ha alone
From the text: as §1, §5, §4

COP(=S)(OC)SCC(=O)N(c1ccc(Cl)cc1)C(C)C [Anilofos, S-[2-[(4-chlorophenyl)(1-methylethyl)amino]-2-oxoethyl] O,O-dimethyl phosphorodithioate]
% visual injury BRSNW Obs [1]: 5% | % visual injury POLCO Obs [2]: 0% | % visual injury SINAR Obs [3]: 0% | % visual injury SASKR Obs [4]: 0% | % visual injury KCHSC Obs [5]: 0% | % visual injury MATCH Obs [6]: 0% | % visual injury CIRAR Obs [7]: 0% | % visual injury TRZAS Obs [8]: 0% | % visual injury HORVS Obs [9]: 0% | % visual injury VIOTR Obs [10]: 0% | % visual injury CAPBP Obs [11]: 0% | % visual injury VERPE Obs [12]: 5% | % visual injury VERHE Obs [13]: 0% | % visual injury MATIN Obs [14]: 0% | % visual injury MATMT Obs [15]: 0% | % visual injury PAPRH Obs [16]: 25% | % visual injury LAMPU Obs [17]: 10% | % visual injury VIOAR Obs [18]: 0% | % visual injury STEME Obs [19]: 0% | % visual injury ANTAR Obs [20]: 5% | % visual injury CENCY Obs [21]: 10% | % visual injury TRZAW Obs [22]: 0% | % visual injury HORVW Obs [23]: 0%

CC(C)N(C(=O)COc1nnc(C(F)(F)F)s1)c1ccc(F)cc1 [Flufenacet, N-(4-fluorophenyl)-N-(1-methylethyl)-2-[[5-(trifluoromethyl)-1,3,4-thiadiazol-2-yl]oxy]acetamide]
% visual injury Obs [24]: 5% | % visual injury Obs ([7]; CIRAR, Flufenacet 60 g/ha alone): 8% | % visual injury Obs ([10]; VIOTR, Flufenacet 60 g/ha alone): 0% | % visual injury Obs [25]: 3% | % visual injury Obs [26]: 5% | % visual injury Obs [27]: 15%

CCCOCCN(C(=O)CCl)c1c(CC)cccc1CC [Pretilachlor, 2-chloro-N-(2,6-diethylphenyl)-N-(2-propoxyethyl)acetamide]
% visual injury BRSNW Obs [1]: 5% | % visual injury POLCO Obs [2]: 8% | % visual injury SINAR Obs [3]: 5% | % visual injury SASKR Obs [4]: 25% | % visual injury KCHSC Obs [5]: 5% | % visual injury MATCH Obs [6]: 20% | % visual injury CIRAR Obs [7]: 5% | % visual injury TRZAS Obs [8]: 0% | % visual injury HORVS Obs [9]: 0% | % visual injury VIOTR Obs [10]: 5% | % visual injury CAPBP Obs [11]: 0% | % visual injury VERVE Obs [12]: 10% | % visual injury VERHE Obs [13]: 5% | % visual injury MATIN Obs [14]: 0% | % visual injury MATMT Obs [15]: 13% | % visual injury PAPRH Obs [16]: 10% | % visual injury LAMPU Obs [17]: 5% | % visual injury VIOAR Obs [18]: 5% | % visual injury STEME Obs [19]: 0% | % visual injury ANTAR Obs [20]: 10% | % visual injury CENCY Obs [21]: 10% | % visual injury TRZAW Obs [22]: 0% | % visual injury HORVW Obs [23]: 0%
